Patent US11154519B2, “Inhibitors and their uses” (MEDICAL RESEARCH COUNCIL, priority 2015, dated 2021)

Tests used:
HeLa cells = experiment: Assay 4: protection of cells from tunicamycin stress (WST-8); format: cell-based, human; settings: Tunicamycin 2.5 μg/ml, 0.2-5 μM compound, 3 days
Protocol: Cells were plated in 24-well plates at a density of 15,000 (HeLa) or 12,000 cells/ml (MEFs) 24 hours prior to treatment. ER stress was elicited by addition of fresh media containing 2.5 μg/ml tunicamycin (Sigma-Aldrich). Compounds of Example 1 were dissolved in DMSO and added as indicated. DMSO was used as a mock treatment. Cell viability was assessed by measuring the reduction of WST-8 [2-(2-methoxy-4-nitrophenyl)-3-(4-nitrophenyl)-5-(2,4-disulfophenyl)-2H-tetrazolium] into formazan using Cell viability Counting Kit-8 (Dojindo) according to the supplier's recommendation, […] after tunicamycin treatment.
Cells where stressed with Tunicamycin (2.5 μg/ml) in the presence of 0.2-5 μM of a compound of Example 1. Cell viability was measured 3 days after treatment.
Cytoprotection against ER stress can be measured by a suitable assay. In this instance, cytoprotection was measured in HeLa cells in which ER stress was elicited by the addition of media containing tunicamycin, a drug that blocks N-glycosylation, thereby preventing protein folding and inducing the unfolded protein response. Cell viability was then detected in the presence and absence of a compound of Example 1 after a set period of time, by measuring the reduction of WST-8 into formazan using the standard cell viability kit Cell Viability Counting Kit-8 from Dojindo. […]

PPP1R15A = experiment: Assay 6: PPP1R15A induction in mouse brain (qPCR); format: in vivo; settings: mice, dose-dependent
Protocol: RNA from brain was extracted in trizol (Life Technologies). RNA concentration was measured using a NANODROP1000 spectrophotometer (Thermo Fisher Scientific), and 1 μg was reverse transcribed to cDNA using a SuperScript reverse transcriptase (Life Technologies). Quantitative PCR with primers GAPDH (f): […], GAPDH (r): […], PPP1R15A (f): […]; and PPP1R15A (r): […] was performed using SYBR® Select Master Mix (Ref 4472908, applied biosystems) on a Corbett Rotor-Gene version 6000. Expression of each gene was normalized to the housekeeping gene GAPDH and expressed as fold change calculated using Paffl equation.
PPP1R15A induction was assessed by qPCR on total mRNA extracted from brains of mice treated with the indicated doses of compound of Example 1.
This explains why a selective PPP1R15B inhibitor is tolerated in mice: PPP1R15A induction dephosphorylates eIF2α, ensuring that the eIF2α phosphorylation which results from PPP1R15B inhibition by a compound of Example 1 is only transient. This is important because a persistent phosphorylation of eIF2α is detrimental. The induction of PPP1R15A in vivo by a PPP1R15B inhibitor is a pharmacodynamic parameter that can be used to evaluate the efficacy and potency of PPP1R15B inhibitors in mammals in pre-clinical or clinical studies.

[1] = tested on: dorsal root ganglia culture (DRG) from PMP22 mutant mice; experiment: Myelination in DRG explants from neuropathic mice; format: cell-based; settings: 5 nM, 14 days
Protocol: Dorsal root ganglia (DRG) dissected from wild-type or Pmp22Tr-J (PMP22mutant) (Henry et al., Neuropathol. Exp. Neurol., 42, 688-706, 1983) embryo at 13.5 or […] (E13.5) were cultured on collagen coated coverslips in neurobasal media supplemented with 4 g/l glucose, 2 mM L-glutamine, 2% B27 supplement and 50 ng/ml neuronal growth factor (NGF) for 7 days. To differentiate Schwann cells and induce myelination, the cultured DRGs were then maintained in C-media (MEM media supplemented with 4 g/I glucose, 2 mM L-glutamine, 10% FCS, 50 ng/ml NGF). The C-media was replaced every other day with freshly added 50 μg/ml ascorbic acid ±5 nM of compound of Example I and cultured for 14 days for myelination by the Schwann cells. The cultured DRGs were then fixed in 4% paraformaldehyde and immunostained with MBP (Rat Myelin basic protein, 1/250 dilution, ab73498).
CMT is a group of myelin neuropathies caused by mutations in a number of genes. Mutations in the peripheral myelin protein PMP22 are the most common causes of CMT. A mutation in PMP22 (Trembler-J) causes the misfolding of PMP22 and a disease in mice that resembles CMT in human due to defects in myelin in the peripheral nervous system. Explants from PM P22 mutant mice recapitulates the severe hypomyelination observed in the human diseases. […] The compound of Example 1 will also be useful in the treatment of other myelin disorders.

HD-N171-82Q mice = experiment: Huntington's disease mouse model, motor performance (rotarod); format: in vivo; settings: 2 mg/kg oral daily, 4 weeks
Protocol: To assess the efficacy of a compound of Example 1 in ameliorating a disease phenotype, 28-day old transgenic mice or littermate control were orally administered daily with a compound of Example 1 (2 mg/kg) or vehicle for a duration of 4 weeks. Disease progression was evaluated by weighting the mice during the treatment and by assessing their motor performances after 4 weeks of treatment.
Eight weeks old HD-N171-82Q mice and their wild-type littermates were first habituated for 1 min on a static rotor and 1 min at constant speed (4 rpm). Habituation was repeated. The test session consisted of four trials with 15 min intervals in between. For each trial 5 mice were placed on an accelerating rotor (4 to 40 rpm) and the latency to fall was recorded, with a maximum limit for individual animal set at 300 s.
Increasing folding by inhibition of PPP1R15B has the potential to benefit a very broad range of human pathologies. To test this, the inventors looked at Huntington's disease (HD), a proteostasis disease caused by accumulation of a misfolded protein, mutant Huntingtin. […] As HD has no cure to date, the inventors tested whether HD could be prevented by PPP1R15B inhibition.

`[H]/N=C(\N)NN=Cc1cccc(Cl)c1Cl` [Compound 16, (E)-2-(2,3-dichlorobenzylidene)hydrazine-1-carboximidamide] was tested. Which “protection of cells from stress (cell viability)” value (HeLa cells) did it give?
Its value is “protects cells from cytotoxic stress caused by tunicamycin”.

And the “PPP1R15A induction (mRNA, brain)” value (PPP1R15A)?
Its value is “induced PPP1R15A”.

And the “length of myelin internodes” value [1]?
Its value is “increased the length of myelin internodes in mutant DRG”.

And the motor performances (HD-N171-82Q mice)?
Its motor performances is “prevented the motor performances impairment”.
